Common to all, as to test: relative viability (nuclei count vs DMSO), 5 days (fraction); higher = more cells survive
Compound in assay [1]: CS(=O)(=O)c1ccc(C(=O)Nc2ccc(Cl)c(-c3ccccn3)c2)c(Cl)c1 [Vismodegib] + CC(C)C[C@H](NC(=O)[C@H](Cc1ccccc1)NC(=O)c1cnccn1)B(O)O [Bortezomib] (partner 0.002 µM)
The method, boiled down: (§1)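 After 5 days of treatment, lung cancer cells in 1536-well plates were fixed and stained in a single step (final 0.05% Triton X-100, 1% formaldehyde, 1 ug/ml Hoechst) and their nuclei counted on 4× images. Treatment had been applied by pin tool the day after seeding as one drug alone or as a fixed anchor-drug dose with five library-drug doses (not always all listed) in √10 steps. Relative viability is the nuclei count of treated wells divided by that of vehicle wells, and values are medians of duplicate plates.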

Compound in assay [2]: CS(=O)(=O)c1ccc(C(=O)Nc2ccc(Cl)c(-c3ccccn3)c2)c(Cl)c1 [Vismodegib] + CS(=O)(=O)CCNCc1ccc(-c2ccc3ncnc(Nc4ccc(OCc5cccc(F)c5)c(Cl)c4)c3c2)o1 [Lapatinib] (partner 2 µM)
In a few lines: as §1

Compound in assay [3]: CS(=O)(=O)c1ccc(C(=O)Nc2ccc(Cl)c(-c3ccccn3)c2)c(Cl)c1 [Vismodegib] + COc1cc2c(Oc3ccc(NC(=O)C4(C(=O)Nc5ccc(F)cc5)CC4)cc3F)ccnc2cc1OCCCN1CCOCC1 [Foretinib] (partner 0.25 µM)
The method, boiled down:
as §1

Compound in assay [4]: CS(=O)(=O)c1ccc(-c2cnc(N)c(C(=O)Nc3ccccc3)n2)cc1 [VE-821] + CC(=O)c1c(C)c2cnc(Nc3ccc(N4CCNCC4)cn3)nc2n(C2CCCC2)c1=O [Palbociclib] (partner 0.5 µM)
In a few lines: as §1

For the cell line NCI-H2023, the relative viability in assay [1] (first compound 0.08 µM) stood at 0.906; in assay [1] (first compound 0.253 µM), 0.889; in assay [1] (first compound 0.8 µM), 0.915; in assay [1] (first compound 2.53 µM), 1.02; in assay [1] (first compound 8 µM), 0.943; in assay [2] (first compound 0.08 µM), 0.426. The relative viability came to 0.871 in assay [2] (first compound 0.253 µM); 0.738 in assay [2] (first compound 0.8 µM); 0.76 in assay [2] (first compound 2.53 µM); 0.935 in assay [2] (first compound 8 µM); 0.974 in assay [3] (first compound 0.08 µM); 0.804 in assay [3] (first compound 0.253 µM). Besides, the relative viability in assay [3] (first compound 0.8 µM) was determined as 0.881; in assay [3] (first compound 2.53 µM) it was 0.834; in assay [3] (first compound 8 µM) it was 0.999; in assay [4] (first compound 0.08 µM) it was 0.452; in assay [4] (first compound 0.253 µM), 0.346; in assay [4] (first compound 0.8 µM), 0.317. For the same cell line, the relative viability in assay [4] (first compound 2.53 µM) stood at 0.297; in assay [4] (first compound 8 µM), 0.124.
Consider NCI-H2085, for which the relative viability in assay [1] (first compound 0.08 µM) was found to be 1.08; in assay [1] (first compound 0.253 µM), 0.985; in assay [1] (first compound 0.8 µM), 1.06; in assay [1] (first compound 2.53 µM), 1.1; in assay [1] (first compound 8 µM), 1.02; in assay [2] (first compound 0.08 µM), 0.764. For the same cell line, the relative viability in assay [2] (first compound 0.253 µM) was 0.809; in assay [2] (first compound 0.8 µM) it was 0.71; in assay [2] (first compound 2.53 µM) it was 0.751; in assay [2] (first compound 8 µM), 0.81; in assay [3] (first compound 0.08 µM), 0.86; in assay [3] (first compound 0.253 µM), 0.96. Further, the relative viability worked out at 0.989 in assay [3] (first compound 0.8 µM); 0.755 in assay [3] (first compound 2.53 µM); 0.796 in assay [3] (first compound 8 µM); 0.481 in assay [4] (first compound 0.08 µM); 0.489 in assay [4] (first compound 0.253 µM); 0.493 in assay [4] (first compound 0.8 µM). The relative viability in assay [4] (first compound 8 µM) was found to be 0.552.
NCI-H2087: the relative viability in assay [1] (first compound 0.08 µM) is 0.745; in assay [1] (first compound 0.253 µM), 0.786; in assay [1] (first compound 0.8 µM) it was 0.699; in assay [1] (first compound 2.53 µM) it was 0.587; in assay [1] (first compound 8 µM) it was 0.836; in assay [2] (first compound 0.08 µM), 0.872. Besides, the relative viability came out at 0.856 in assay [2] (first compound 0.253 µM); 1.12 in assay [2] (first compound 0.8 µM); 1.07 in assay [2] (first compound 2.53 µM); 0.863 in assay [2] (first compound 8 µM); 1.09 in assay [3] (first compound 0.08 µM); 1.1 in assay [3] (first compound 0.253 µM). Also, the relative viability was 0.985 in assay [3] (first compound 0.8 µM); 1.13 in assay [3] (first compound 2.53 µM); 0.938 in assay [3] (first compound 8 µM); 0.263 in assay [4] (first compound 0.08 µM); 0.192 in assay [4] (first compound 0.253 µM); 0.292 in assay [4] (first compound 0.8 µM). In addition, the values for the relative viability in assay [4] (first compound 2.53 µM) and in assay [4] (first compound 8 µM) were 0.259 and 0.297, respectively.
Take NCI-H2126: the relative viability in assay [1] (first compound 0.08 µM) turned out to be 1.08; in assay [1] (first compound 0.253 µM), 1.09; in assay [1] (first compound 0.8 µM) it was 1.1; in assay [1] (first compound 2.53 µM) it was 1.14; in assay [1] (first compound 8 µM), 1.15; in assay [2] (first compound 0.08 µM) it was 0.725. Further, the relative viability amounted to 0.746 in assay [2] (first compound 0.253 µM); 0.701 in assay [2] (first compound 0.8 µM); 0.616 in assay [2] (first compound 2.53 µM); 0.729 in assay [2] (first compound 8 µM); 1.19 in assay [3] (first compound 0.08 µM); 1.13 in assay [3] (first compound 0.253 µM). Besides, the relative viability in assay [3] (first compound 2.53 µM) was found to be 1.09; in assay [3] (first compound 8 µM), 1.15; in assay [4] (first compound 0.08 µM), 0.36; in assay [4] (first compound 0.253 µM) it was 0.336; in assay [4] (first compound 0.8 µM), 0.333; in assay [4] (first compound 2.53 µM), 0.296. For the same cell line, the relative viability in assay [4] (first compound 8 µM) was determined as 0.32.
For the cell line NCI-H2228, the relative viability in assay [1] (first compound 0.08 µM) was determined as 1.08; in assay [1] (first compound 0.253 µM), 0.954; in assay [1] (first compound 0.8 µM), 0.958; in assay [1] (first compound 2.53 µM), 0.835; in assay [1] (first compound 8 µM), 0.965; in assay [2] (first compound 0.08 µM), 1.16. For the same cell line, the relative viability in assay [2] (first compound 0.253 µM) is 1.19; in assay [2] (first compound 0.8 µM), 1.03; in assay [2] (first compound 2.53 µM), 1.05; in assay [2] (first compound 8 µM) it was 1.02; in assay [3] (first compound 0.08 µM) it was 0.866; in assay [3] (first compound 0.253 µM) it was 1.02. In addition, the relative viability in assay [3] (first compound 0.8 µM) was found to be 0.871; in assay [3] (first compound 2.53 µM), 0.769; in assay [3] (first compound 8 µM), 1.01; in assay [4] (first compound 0.08 µM), 0.885; in assay [4] (first compound 0.253 µM), 0.762; in assay [4] (first compound 0.8 µM), 0.981. Moreover, the results for the relative viability in assay [4] (first compound 2.53 µM) and in assay [4] (first compound 8 µM) were 1.03 and 0.547, respectively.
As for NCI-H2347, the relative viability in assay [1] (first compound 0.08 µM) was 1; in assay [1] (first compound 0.253 µM), 0.9; in assay [1] (first compound 2.53 µM), 0.969; in assay [1] (first compound 8 µM), 0.968; in assay [2] (first compound 0.08 µM), 0.962; in assay [2] (first compound 0.253 µM) it was 0.989. Also, the relative viability in assay [2] (first compound 0.8 µM) came out at 0.901; in assay [2] (first compound 2.53 µM), 0.808; in assay [2] (first compound 8 µM) it was 0.938; in assay [3] (first compound 0.08 µM) it was 1.12; in assay [3] (first compound 0.253 µM) it was 0.599; in assay [3] (first compound 2.53 µM) it was 0.834. Further, the relative viability in assay [3] (first compound 8 µM) worked out at 0.978; in assay [4] (first compound 0.08 µM), 0.385; in assay [4] (first compound 0.253 µM), 0.492; in assay [4] (first compound 0.8 µM), 0.42; in assay [4] (first compound 2.53 µM), 0.457; in assay [4] (first compound 8 µM) it was 0.498.
As to NCI-H2405, the relative viability was found to be 0.833 in assay [1] (first compound 0.08 µM); 0.977 in assay [1] (first compound 0.253 µM); 0.978 in assay [1] (first compound 0.8 µM); 0.92 in assay [1] (first compound 2.53 µM); 0.995 in assay [1] (first compound 8 µM); 1.09 in assay [2] (first compound 0.253 µM). For the same cell line, the relative viability in assay [2] (first compound 0.8 µM) amounted to 0.937; in assay [2] (first compound 2.53 µM), 0.913; in assay [2] (first compound 8 µM) it was 1.11; in assay [3] (first compound 0.08 µM), 1.05; in assay [3] (first compound 0.253 µM) it was 1.04; in assay [3] (first compound 0.8 µM), 0.995. Further, the relative viability was determined as 1.01 in assay [3] (first compound 2.53 µM); 1.08 in assay [3] (first compound 8 µM); 0.533 in assay [4] (first compound 0.08 µM); 0.496 in assay [4] (first compound 0.253 µM); 0.541 in assay [4] (first compound 0.8 µM); 0.558 in assay [4] (first compound 2.53 µM). For the same cell line, in assay [4] (first compound 8 µM), the relative viability worked out at 0.408.

The values above are taken from the supplement of paper PMC10307832.
